The results in this text go back to patent US20210318318A1, “Kinase Activity In Tumors” (Institute For Cancer Research d/b/a The Research Institute …, priority 2018, published 2021).

Test [1] relates to COV362. Description: Short-term growth assay (CellTiter-Glo cell viability), kinase inhibitors. The format is cell-based, human. The following applies: increasing concentrations, Cell Titer Glo. As for the experimental part:
Cell viability was determined by Cell Titer Glo analysis.
COV362 cells were treated with increasing concentrations of A-674563 and cell viability assessed by Cell Titer Glo according to manufacturer's instructions. Data represent the mean of six replicates.
To explore the therapeutic potential of the HGSOC kinome signature, a detailed molecular analysis of protein levels/activity, growth and survival functions was carried out in a panel of recently validated HGSOC cell lines (Coscia et al., Nat. Commun., 2016, 7, 12645) that harbor commonly encountered HGSOC mutations and genetic rearrangements (see, FIG. 5A).
For short-term growth assays, 3000-5000 cells were plated per well in 96-well plates and allowed to adhere and equilibrate overnight. Drug was added the following morning and after 120 hours of drug treatment, cell viability was assessed using the CellTiter-Glo Luminescent cell viability assay according to manufacturer (Promega). Students t tests were performed for statistical analyses and p values ≤0.05 were considered significant. For colony formation assays, cells were plated in 24-well dishes (3000-5000 cells per well) and incubated overnight before continuous drug treatment for 14 days, with drug and media replaced twice weekly. At the end of treatment, cells were rinsed with PBS and fixed with chilled methanol for 10 minutes at −20° C. Methanol was removed by aspiration, and cells were stained with 0.5% crystal violet in 20% methanol for 20 minutes at room temperature, washed with distilled water, and scanned.

For test [2], the target named is T1, CLK2 (Homo sapiens, UniProt P49760).
T1 construct: endogenous in cells; host or cells: OVSAHO
Description: MIB/MS kinome profiling of inhibitor-treated OVSAHO cells. The following applies: 2 μM, 4 hours. The format is cell-based. As for the experimental part:
(§1) OVSAHO cells were treated with 2 μM of inhibitor for 4 hours and analyzed by MIB/MS. Scatterplot depicts difference in kinase MIB-binding of drug treated relative to control DMSO as determined by Students T-test.
(§2) MIB-based kinome profiling was performed on several of these molecules in HGSOC cells to determine kinome-wide inhibition profiles.
(§3) Experiments using MIB/MS were performed as previously described (Duncan et al., Cell, 2012, 149, 307-321; and Kurimchak et al., Cell Reports, 2016, 16, 1273-1286). Briefly, cells or tumors were lysed on ice in buffer containing 50 mM HEPES (pH 7.5), 0.5% Triton X-100, 150 mM NaCl, 1 mM EDTA, 1 mM EGTA, 10 mM sodium fluoride, 2.5 mM sodium orthovanadate, 1× protease inhibitor cocktail (Roche), and 1% each of phosphatase inhibitor cocktails 2 and 3 (Sigma). Particulate was removed by centrifugation of lysates at 13,000 rpm for 10 minutes at 4° C. and filtration through 0.2 μm syringe filters. Protein concentrations were determined by BCA analysis (Thermo). To compare kinome signatures within and across such large sample sizes, a super-SILAC method was designed (Neubert et al., Nat. Meth., 2010, 7, 361-362) consisting of a cocktail of cancer cell lines that encompasses the activity of the “cancer kinome” to be used as a control for individual samples. Five cancer cell lines were selected from the NCI-60 panel (UACC257, MOLT4, COL0205, ACHN and PC3) that differed in their origin, gene expression patterns and mutation status. The cancer cell lines were labeled using SILAC and mixed equally providing a diverse SILAC ([^13C6,^15N4] arginine (Arg^10) and […] (Lys^8)) heavy kinome reference standard (HKS) to be used repeatedly in kinome profiling assays. An equal amount of the HKS was added to the non-labeled sample (cell, tumor or normal tissue) providing a quantitative strategy to compare kinome activity/levels across samples, amongst treatments and, importantly, across time. Endogenous kinases were isolated by flowing lysates over kinase inhibitor-conjugated Sepharose beads (purvalanol B, VI16832, PP58 and CTx-0294885 beads were used) in 10 ml gravity-flow columns. After 2×10 ml column washes in high-salt buffer and 1×10 ml wash in low-salt buffer (containing 50 mM HEPES (pH 7.5), 0.5% Triton X-100, 1 mM EDTA, 1 mM EGTA, and 10 mM sodium fluoride, and 1M NaCl or 150 mM NaCl, respectively), retained kinases were eluted from the column by boiling in 2×500 μL of 0.5% SDS, 0.1 M TrisHCl (pH 6.8), and 1% 2-mercaptoethanol. Eluted peptides were reduced by incubation with 5 mM DTT at 60° C. for 25 minutes, alkylated with 20 mM iodoacetamide at room temperature for 30 minutes in the dark and alkylation was quenched with DTT. Samples were concentrated to approximately 100 μL with Millipore 10 kD cutoff spin concentrators. Detergent was removed by chloroform/methanol extraction, and the protein pellet was resuspended in 100 mM ammonium bicarbonate and digested with sequencing-grade modified trypsin (Promega) overnight at 37° C. […]
(§4) Proteolytic peptides were resuspended in 0.1% formic acid and separated with a Thermo RSLC Ultimate 3000 on a Thermo Easy-Spray C18 PepMap 75 μm×50 cm C-18 2 μm column with a 240 minute gradient of 4-25% acetonitrile with 0.1% formic acid at 300 nL/min and 50° C. Eluted peptides were analyzed by a Thermo Q Exactive plus mass spectrometer utilizing a top 15 methodology in which the 15 most intense peptide precursor ions were subjected to fragmentation. […]

Test [3] addresses T2, PRCKD (Homo sapiens, UniProt Q05655).
T2 construct: endogenous in cells; host or cells: OVSAHO
The description is as above. In kind it is cell-based. The following applies: 2 μM, 4 hours. As to the method:
as §1, §2, §3, §4

Test [4] has as its target T3, MRCKB (Homo sapiens, UniProt Q9Y5S2).
T3 construct: endogenous in cells; host or cells: OVSAHO
Described as above. The format is cell-based. The settings on record: 2 μM, 4 hour treatment. As for the experimental part:
OVSAHO cells were treated with inhibitors at a dose of 2 μM for 4 hours and kinase inhibition profiles determined by MIB/MS. Bar graph depicts % of kinase bound to MIBs relative to DMSO control as determined by label free quantitation.
as §1, §2
Experiments using MIB/MS were performed as previously described (Duncan et al., Cell, 2012, 149, 307-321; and Kurimchak et al., Cell Reports, 2016, 16, 1273-1286). Briefly, cells or tumors were lysed on ice in buffer containing 50 mM HEPES (pH 7.5), 0.5% Triton X-100, 150 mM NaCl, 1 mM EDTA, 1 mM EGTA, 10 mM sodium fluoride, 2.5 mM sodium orthovanadate, 1× protease inhibitor cocktail (Roche), and 1% each of phosphatase inhibitor cocktails 2 and 3 (Sigma). Particulate was removed by centrifugation of lysates at 13,000 rpm for 10 minutes at 4° C. and filtration through 0.2 μm syringe filters. Protein concentrations were determined by BCA analysis (Thermo). To compare kinome signatures within and across such large sample sizes, a super-SILAC method was designed (Neubert et al., Nat. Meth., 2010, 7, 361-362) consisting of a cocktail of cancer cell lines that encompasses the activity of the “cancer kinome” to be used as a control for individual samples. Five cancer cell lines were selected from the NCI-60 panel (UACC257, MOLT4, COL0205, ACHN and PC3) that differed in their origin, gene expression patterns and mutation status. The cancer cell lines were labeled using SILAC and mixed equally providing a diverse SILAC ([^13C6,^15N4] arginine (Arg^10) and […] (Lys^8)) heavy kinome reference standard (HKS) to be used repeatedly in kinome profiling assays. An equal amount of the HKS was added to the non-labeled sample (cell, tumor or normal tissue) providing a quantitative strategy to compare kinome activity/levels across samples, amongst treatments and, importantly, across time. […]
Proteolytic peptides were resuspended in 0.1% formic acid and separated with a Thermo RSLC Ultimate 3000 on a Thermo Easy-Spray C18 PepMap 75 μm×50 cm C-18 2 μm column with a 240 minute gradient of 4-25% acetonitrile with 0.1% formic acid at 300 nL/min and 50° C. Eluted peptides were analyzed by a Thermo Q Exactive plus mass spectrometer utilizing a top 15 methodology in which the 15 most intense peptide precursor ions were subjected to fragmentation.

Test [5] concerns HGSOC cells. Briefly: Apoptosis in inhibitor-treated HGSOC cells. In kind it is cell-based, human. The following applies: increasing doses.

T2 sequence (Q05655 whole entry): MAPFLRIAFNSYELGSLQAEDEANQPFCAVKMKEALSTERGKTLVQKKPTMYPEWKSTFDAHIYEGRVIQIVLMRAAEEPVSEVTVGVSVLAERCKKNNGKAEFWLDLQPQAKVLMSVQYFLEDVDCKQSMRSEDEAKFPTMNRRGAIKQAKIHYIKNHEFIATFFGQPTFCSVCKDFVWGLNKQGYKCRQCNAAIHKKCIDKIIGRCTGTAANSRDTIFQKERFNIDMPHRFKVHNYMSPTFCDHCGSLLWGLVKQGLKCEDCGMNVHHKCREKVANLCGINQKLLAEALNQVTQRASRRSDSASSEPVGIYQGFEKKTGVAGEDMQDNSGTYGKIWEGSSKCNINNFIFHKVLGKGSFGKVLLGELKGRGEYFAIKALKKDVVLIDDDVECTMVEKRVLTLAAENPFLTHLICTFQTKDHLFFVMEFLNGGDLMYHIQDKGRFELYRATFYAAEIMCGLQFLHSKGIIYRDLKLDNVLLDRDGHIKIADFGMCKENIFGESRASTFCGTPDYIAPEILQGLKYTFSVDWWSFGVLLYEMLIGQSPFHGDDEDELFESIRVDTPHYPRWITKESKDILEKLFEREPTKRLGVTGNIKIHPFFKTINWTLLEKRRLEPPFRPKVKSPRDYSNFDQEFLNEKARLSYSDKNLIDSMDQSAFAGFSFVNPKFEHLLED
T1 sequence (P49760 whole entry): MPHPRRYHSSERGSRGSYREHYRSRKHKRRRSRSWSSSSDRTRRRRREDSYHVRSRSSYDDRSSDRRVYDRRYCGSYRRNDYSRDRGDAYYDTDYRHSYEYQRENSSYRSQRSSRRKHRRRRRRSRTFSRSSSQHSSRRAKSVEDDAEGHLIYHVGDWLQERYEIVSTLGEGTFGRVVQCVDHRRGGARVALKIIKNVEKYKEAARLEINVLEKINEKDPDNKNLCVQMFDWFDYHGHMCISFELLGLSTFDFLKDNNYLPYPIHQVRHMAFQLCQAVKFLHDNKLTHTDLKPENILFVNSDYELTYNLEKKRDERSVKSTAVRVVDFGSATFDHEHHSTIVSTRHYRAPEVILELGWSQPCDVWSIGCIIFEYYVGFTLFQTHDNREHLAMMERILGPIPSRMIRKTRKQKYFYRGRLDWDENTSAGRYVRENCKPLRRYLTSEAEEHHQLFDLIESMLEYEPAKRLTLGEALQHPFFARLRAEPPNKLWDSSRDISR
T3 sequence (Q9Y5S2 whole entry): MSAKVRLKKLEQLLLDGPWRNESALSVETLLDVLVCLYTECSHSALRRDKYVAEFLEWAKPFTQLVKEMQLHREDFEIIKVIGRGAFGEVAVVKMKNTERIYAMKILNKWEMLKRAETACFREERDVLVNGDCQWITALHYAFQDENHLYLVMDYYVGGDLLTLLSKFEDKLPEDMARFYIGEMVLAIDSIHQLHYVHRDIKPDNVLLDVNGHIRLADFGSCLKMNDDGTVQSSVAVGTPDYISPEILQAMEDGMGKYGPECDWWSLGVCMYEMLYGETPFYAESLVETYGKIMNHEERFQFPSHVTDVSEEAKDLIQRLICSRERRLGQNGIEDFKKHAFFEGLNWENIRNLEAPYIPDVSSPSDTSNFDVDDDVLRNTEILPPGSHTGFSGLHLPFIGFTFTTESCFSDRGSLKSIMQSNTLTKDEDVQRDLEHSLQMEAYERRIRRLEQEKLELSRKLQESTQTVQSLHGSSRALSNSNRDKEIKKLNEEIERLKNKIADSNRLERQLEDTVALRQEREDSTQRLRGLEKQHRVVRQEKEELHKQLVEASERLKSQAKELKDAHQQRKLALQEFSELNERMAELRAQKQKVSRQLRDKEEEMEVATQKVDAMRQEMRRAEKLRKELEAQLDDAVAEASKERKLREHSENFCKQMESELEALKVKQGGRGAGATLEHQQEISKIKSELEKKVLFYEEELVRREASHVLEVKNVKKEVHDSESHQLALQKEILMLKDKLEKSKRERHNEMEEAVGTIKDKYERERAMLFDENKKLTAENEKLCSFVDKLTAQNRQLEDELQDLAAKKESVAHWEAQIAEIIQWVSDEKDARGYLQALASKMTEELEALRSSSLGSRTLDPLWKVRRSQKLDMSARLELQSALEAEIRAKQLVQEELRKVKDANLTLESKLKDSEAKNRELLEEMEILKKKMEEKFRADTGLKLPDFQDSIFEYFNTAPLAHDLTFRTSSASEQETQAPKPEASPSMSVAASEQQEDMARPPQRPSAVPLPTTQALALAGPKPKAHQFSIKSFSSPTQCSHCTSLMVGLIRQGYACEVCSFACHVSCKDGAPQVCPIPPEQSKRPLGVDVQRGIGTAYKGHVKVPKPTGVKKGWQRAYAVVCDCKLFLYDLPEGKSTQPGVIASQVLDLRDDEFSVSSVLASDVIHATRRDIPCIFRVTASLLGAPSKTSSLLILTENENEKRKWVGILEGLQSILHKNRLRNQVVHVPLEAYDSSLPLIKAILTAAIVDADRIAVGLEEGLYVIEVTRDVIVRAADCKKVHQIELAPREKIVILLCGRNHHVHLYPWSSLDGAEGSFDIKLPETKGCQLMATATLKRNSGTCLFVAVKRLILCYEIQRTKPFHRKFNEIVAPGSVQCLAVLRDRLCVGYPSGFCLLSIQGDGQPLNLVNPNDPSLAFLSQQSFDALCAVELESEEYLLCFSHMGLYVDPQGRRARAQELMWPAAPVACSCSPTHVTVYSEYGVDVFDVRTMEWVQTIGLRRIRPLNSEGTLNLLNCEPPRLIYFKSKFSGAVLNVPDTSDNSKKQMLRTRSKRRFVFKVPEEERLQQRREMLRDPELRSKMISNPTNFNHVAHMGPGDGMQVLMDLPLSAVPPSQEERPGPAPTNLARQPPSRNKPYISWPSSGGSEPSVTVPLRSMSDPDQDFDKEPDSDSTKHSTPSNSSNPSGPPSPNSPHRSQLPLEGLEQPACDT

On to `Cc1[nH]nc2ccc(-c3cncc(OC[C@@H](N)Cc4ccccc4)c3)cc12` [A-674563], for which the cell viability result in test [1] is “inhibited cell viability”. Besides, the “MIB-binding of CLK2” value in test [2] is on record as “inhibited”. Moreover, the “MIB-binding of PRCKD” value in test [3] was “inhibited”. The “MIB-binding of MRCKB relative to DMSO” value in test [4] is listed as “Reduced MIB-binding”. Moreover, in test [5], the apoptosis entry is reported as “induced apoptosis”.
